Source: patent US8883801B2, “Substituted pyrazolo[1,5-a]pyrimidines as mTOR inhibitors” (Merck Sharp & Dohme Corp., priority 2010, dated 2014)

How the values were obtained:
human mTOR enzyme = human mTOR enzyme (Homo sapiens, UniProt P42345); assay: HTRF mTOR enzyme (kinase) assay; format: biochemical; details: rated class; 5 μM ATP, 0.2 μM GST-S6K; read-out: hMTOR IC50
Description: Methods: An HTRF mTOR enzyme assay was developed to assess the compounds' inhibitory activity. The mTOR assay buffer contained 10 mM Hepes (pH 7.4), 50 mM NaCl, […] BSA, 50 mM […], 10 mM MnCl2 and 0.5 mM DTT. […] 20 ng of human mTOR enzyme (<5% pure was preincubated with the compound for 10 minutes followed by the addition of 5 μM ATP and 0.2 μM GST-S6K (Zhang et al., Protein Expression and Purification 46, pp 414-420 (2006)). The reaction was incubated for one hour at 30° C. Anti phospho p70-S6K(Thr389) (˜1.7 ng/well, anti-phospho-p70S6K-cryptate (Pho-p70S6-Kin-K cat#64CUSKAY, from Cisbio)) and anti GST-XL665 (1:1 Ratio with the substrate GST-S6K, anti GST-XL665, cat#61GSTXLB) Cisbio) were added after the reaction was stopped. The plates were read (PHERAstar, BMG) at least 2 hours after adding the anti phospho p70-S6K and the anti GST-XL665.
IC50 DETERMINATIONS: Dose-response curves were plotted from the inhibition data generated, each in duplicate, from 8 point serial dilutions of inhibitory compounds. Concentration of compound was plotted against the HTRF em665/em590 ratio signal. To generate IC50 values, the dose-response curves were fitted to a standard sigmoidal curve and IC50 values were derived by nonlinear regression analysis.

[1] = tested on: mTORC2 activity: phosphorylated AKT Ser473 (pAKT S473) in PC3 cells; assay: mTOR target engagement assay, immunofluorescent cell-based, mTORC2 readout; details: Homo sapiens, PC-3, 1.5 h, rated class, 90 min treatment
Description: The target engagement of mTOR kinase inhibitors was evaluated using an immunofluorescent cell-based assay. In this assay, inhibition of mTORC1 activity was measured by the reduction in the level of phosphorylated 4E-BP1Thr37/46 (p4E-BP1 Thr37/46), and inhibition of mTORC2 activity was measured by the reduction of phosphorylated AKTSer473 (pAKT S473).
PC3 cells (prostate tumor cell-line that contains a mutation in the tumor suppressor PTEN, that promotes the phosphorylation and activation of AKT and 4E-BP1) were used in the immunofluorescence assay. PC3 cells were seeded on 384 well plates (black clear bottom, Matrix #4332) overnight. PC3 cells were then treated with 40 μl of the serially diluted test compounds (in 5% fetal bovine serum, F12 medium containing 0.25% DMSO) for ninety minutes at 37° C. The test compound solution was removed, and the plates were washed gently two times with 25 μl phosphate buffered saline (PBS). The cells were fixed by adding 25 μl of Prefer reagent (from Anatech LTD, Cat#414, a glyoxal fixative for fixing proteins within a cell) for sixty minutes followed by three washes with PBS. 5% Goat serum in PBS/0.3% Triton was used to block non-specific binding (60 minutes).
The primary antibodies targeting pAKT S473 and p4E-BP1 Thr37/46 were diluted into PBS/0.3% Triton and incubated with the cells overnight at 4° C. The antibodies targeting pAKTS473 (Cat#4085, Cell signaling) and p4E-BP1 Thr37/46 (Cat#2855, Cell signaling) were used at a 1:100 dilution. Plates were washed three times with PBS/0.1% Tween 20 before adding the secondary antibody at a 1:200 dilution. (goat anti-rabbit containing a fluorescent label, Alexa Fluor 488, Cat#A11008, Invitrogen) in PBS/0.3% Triton for 60 minutes.
Finally, the plates were washed three times with PBS/0.1% Tween 20 and the fluorescent intensity was read using an Analyst HT from Molecular Devices. The fluorescent intensity values from the serially diluted compound treatment group were analyzed using the Xlfit 4 program ([…]) (Formula 205: Y=Bottom+(Top-Bottom)/(1+(IC50/X)^Hillslope) to generate the IC50 value. Where Top is the maximum signal without Compound (+DMSO only) and Bottom represents maximum inhibition. Y is the fluorescence at some compound concentration. The control used to determine the fluorescent intensities for 100% pAKT S473 or 100% phosphorylated p4E-BP1 Thr37/46 were measured from untreated wells that contained only DMSO, instead of test compound.

Chain of human mTOR enzyme (P42345 1360-2549 limits assumed): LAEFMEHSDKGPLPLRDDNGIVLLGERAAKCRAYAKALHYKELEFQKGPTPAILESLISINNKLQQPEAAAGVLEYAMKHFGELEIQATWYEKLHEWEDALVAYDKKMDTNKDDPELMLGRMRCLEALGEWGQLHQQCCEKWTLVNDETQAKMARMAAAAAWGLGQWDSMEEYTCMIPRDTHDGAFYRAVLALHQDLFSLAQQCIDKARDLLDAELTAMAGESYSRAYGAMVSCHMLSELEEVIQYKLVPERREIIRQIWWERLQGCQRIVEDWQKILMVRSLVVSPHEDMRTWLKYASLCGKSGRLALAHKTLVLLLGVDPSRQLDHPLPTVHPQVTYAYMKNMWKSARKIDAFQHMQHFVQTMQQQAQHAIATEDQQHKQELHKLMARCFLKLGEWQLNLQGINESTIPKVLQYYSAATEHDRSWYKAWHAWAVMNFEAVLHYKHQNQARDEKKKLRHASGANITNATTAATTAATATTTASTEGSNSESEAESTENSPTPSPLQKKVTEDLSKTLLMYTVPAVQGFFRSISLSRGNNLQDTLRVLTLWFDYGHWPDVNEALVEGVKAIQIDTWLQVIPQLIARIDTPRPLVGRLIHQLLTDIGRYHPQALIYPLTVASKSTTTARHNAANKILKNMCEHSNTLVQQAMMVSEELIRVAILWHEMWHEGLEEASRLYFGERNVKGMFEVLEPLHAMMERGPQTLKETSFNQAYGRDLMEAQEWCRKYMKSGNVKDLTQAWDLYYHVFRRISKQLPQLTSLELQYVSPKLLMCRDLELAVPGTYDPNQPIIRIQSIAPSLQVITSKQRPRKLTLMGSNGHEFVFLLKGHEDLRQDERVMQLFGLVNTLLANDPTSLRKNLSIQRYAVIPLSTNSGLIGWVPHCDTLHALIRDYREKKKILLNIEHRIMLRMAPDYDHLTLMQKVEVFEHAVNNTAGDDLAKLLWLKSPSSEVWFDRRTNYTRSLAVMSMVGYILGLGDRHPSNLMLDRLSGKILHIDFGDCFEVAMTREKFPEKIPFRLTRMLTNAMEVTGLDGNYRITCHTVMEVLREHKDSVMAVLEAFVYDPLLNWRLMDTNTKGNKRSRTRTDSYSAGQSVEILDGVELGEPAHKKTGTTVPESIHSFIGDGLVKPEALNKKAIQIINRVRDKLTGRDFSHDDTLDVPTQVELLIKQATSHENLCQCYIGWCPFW

| Structure (SMILES) | IC50 (human mTOR enzyme) | IC50 [1] |
| --- | --- | --- |
| COC[C@]1(C(=O)O)CC[C@@H](c2nc3c(-c4cnn(-c5ccccc5)c4)cnn3c(N)c2C(C)=O)CC1 [Compound 21, (1S,4S)-4-(6-acetyl-7-amino-3-(1-phenyl-1H-pyrazol-4-yl)pyrazolo[1,5-a]pyrimidin-5-yl)-1-(methoxymethyl)-cyclohexane-carboxylic acid] | 1 to 100 nM | 100 to 1000 nM |
| COC[C@]1(C(=O)O)CC[C@H](c2nc3c(-c4cnc5ccc(F)cc5c4)cnn3c(N)c2C(C)=O)CC1 [Compound 22, (1R,4R)-4-(6-acetyl-7-amino-3-(6-fluoroquinolin-3-yl)pyrazolo[1,5-a]pyrimidin-5-yl)-1-(methoxymethyl)-cyclohexane-carboxylic acid] | 1 to 100 nM | 100 to 1000 nM |
| COC[C@]1(C(=O)O)CC[C@@H](c2nc3c(-c4cnc5ccc(F)cc5c4)cnn3c(N)c2C(C)=O)CC1 [Compound 23, (1S,4S)-4-(6-acetyl-7-amino-3-(6-fluoroquinolin-3-yl)pyrazolo[1,5-a]pyrimidin-5-yl)-1-(methoxymethyl)-cyclohexane-carboxylic acid] | 1 to 100 nM | 2000 to 5000 nM |
| COCCOCC1(C(=O)O)CCC(c2nc3c(-c4ccc(-c5ccccc5)nc4)cnn3c(N)c2C(C)=O)CC1 (centres unmarked) [Compound 24, 4-(6-acetyl-7-amino-3-(6-phenylpyridin-3-yl)pyrazolo[1,5-a]pyrimidin-5-yl)-1-((2-methoxyethoxy)methyl)cyclohexane-carboxylic acid] | 1 to 100 nM | 100 to 1000 nM |
| CS(=O)(=O)C1(C(=O)O)CCC(c2nc3c(-c4cnn(-c5ccccc5)c4)cnn3c(N)c2Br)CC1 (centres unmarked) [Compound 27, 4-(7-amino-6-bromo-3-(1-phenyl-1H-pyrazol-4-yl)pyrazolo[1,5-a]pyrimidin-5-yl)-1-(methylsulfonyl)cyclohexanecarboxylic acid] | 1 to 100 nM | 2000 to 5000 nM |
| CO[C@]1(C(=O)O)CC[C@H](c2nc3c(-c4cnc5ccc(F)cc5c4)cnn3c(N)c2Br)CC1 [Compound 32, (1S,4S)-4-(7-amino-6-bromo-3-(6-fluoroquinolin-3-yl)pyrazolo[1,5-a]pyrimidin-5-yl)-1-methoxycyclohexane-carboxylic acid] | 1 to 100 nM | 100 to 1000 nM |
| CO[C@]1(C(=O)O)CC[C@@H](c2nc3c(-c4cnc5ccc(F)cc5c4)cnn3c(N)c2Br)CC1 [Compound 33, (1R,4R)-4-(7-amino-6-bromo-3-(6-fluoroquinolin-3-yl)pyrazolo[1,5-a]pyrimidin-5-yl)-1-methoxycyclohexane-carboxylic acid] | 1 to 100 nM | 1000 to 2000 nM |
| CO[C@]1(C(=O)O)CC[C@H](c2nc3c(-c4cnc5ccc(F)cc5c4)cnn3c(N)c2C(C)=O)CC1 [Compound 38, (1S,4S)-4-(6-acetyl-7-amino-3-(6-fluoroquinolin-3-yl)pyrazolo[1,5-a]pyrimidin-5-yl)-1-methoxycyclohexane-carboxylic acid] | 1 to 100 nM | 100 to 1000 nM |
| CO[C@]1(C(=O)O)CC[C@@H](c2nc3c(-c4cnc5ccc(F)cc5c4)cnn3c(N)c2C(C)=O)CC1 [Compound 39, (1R,4R)-4-(6-acetyl-7-amino-3-(6-fluoroquinolin-3-yl)pyrazolo[1,5-a]pyrimidin-5-yl)-1-methoxycyclohexane-carboxylic acid] | 1 to 100 nM | 100 to 1000 nM |
| COCCO[C@]1(C(=O)O)CC[C@H](c2nc3c(-c4cnn(-c5ccccc5)c4)cnn3c(N)c2C(C)=O)CC1 [Compound 54, (1S,4S)-4-(6-acetyl-7-amino-3-(1-phenyl-1H-pyrazol-4-yl)pyrazolo[1,5-a]pyrimidin-5-yl)-1-(2-methoxyethoxy)cyclohexanecarboxylic acid] | 1 to 100 nM | 5000 to 15000 nM |
| COCCO[C@]1(C(=O)O)CC[C@@H](c2nc3c(-c4cnn(-c5ccccc5)c4)cnn3c(N)c2C(C)=O)CC1 [Compound 55, (1R,4R)-4-(6-acetyl-7-amino-3-(1-phenyl-1H-pyrazol-4-yl)pyrazolo[1,5-a]pyrimidin-5-yl)-1-(2-methoxyethoxy)cyclohexanecarboxylic acid] | 1 to 100 nM | 100 to 1000 nM |
| COCCO[C@]1(C(=O)O)CC[C@H](c2nc3c(-c4ccc(-c5ccccc5)nc4)cnn3c(N)c2C(C)=O)CC1 [Compound 56, (1S,4S)-4-(6-acetyl-7-amino-3-(6-phenylpyridin-3-yl)pyrazolo[1,5-a]pyrimidin-5-yl)-1-(2-methoxyethoxy) cyclohexanecarboxylic acid] | 1 to 100 nM | 5000 to 15000 nM |

Other lines, results leading:

| IC50 (human mTOR enzyme) | IC50 [1] | Structure (SMILES) |
| --- | --- | --- |
| 1 to 100 nM | 100 to 1000 nM | COCCO[C@]1(C(=O)O)CC[C@@H](c2nc3c(-c4ccc(-c5ccccc5)nc4)cnn3c(N)c2C(C)=O)CC1 [Compound 57, (1R,4R)-4-(6-acetyl-7-amino-3-(6-phenylpyridin-3-yl)pyrazolo[1,5-a]pyrimidin-5-yl)-1-(2-methoxyethoxy) cyclohexanecarboxylic acid] |
| 1 to 100 nM | 100 to 1000 nM | CC(=O)c1c(N)n2ncc(-c3ccc(-c4ccccc4)nc3)c2nc1[C@H]1CC[C@@](OCCN2CCOCC2)(C(=O)O)CC1 [Compound 58, (1R,4R)-4-(6-acetyl-7-amino-3-(6-phenylpyridin-3-yl)pyrazolo[1,5-a]pyrimidin-5-yl)-1-(2-morpholinoethoxy) cyclohexanecarboxylic acid] |
| 1 to 100 nM | 100 to 1000 nM | COCCO[C@]1(C(=O)O)CC[C@@H](c2nc3c(-c4ccc(-c5nccs5)nc4)cnn3c(N)c2C(C)=O)CC1 [Compound 60, (1R,4R)-4-(6-acetyl-7-amino-3-(6-(thiazol-2-yl)pyridin-3-yl)pyrazolo[1,5-a]pyrimidin-5-yl)-1-(2-methoxyethoxy) cyclohexanecarboxylic acid] |
| 1 to 100 nM | 100 to 1000 nM | COCCO[C@]1(C(=O)O)CC[C@@H](c2nc3c(-c4ccc(-c5cscn5)nc4)cnn3c(N)c2C(C)=O)CC1 [Compound 62, (1R,4R)-4-(6-acetyl-7-amino-3-(6-(thiazol-4-yl)pyridin-3-yl)pyrazolo[1,5-a]pyrimidin-5-yl)-1-(2-methoxyethoxy) cyclohexanecarboxylic acid] |
| 1 to 100 nM | 1000 to 2000 nM | COCCO[C@]1(C(=O)O)CC[C@@H](c2nc3c(-c4ccc(-c5ccccc5)nc4)cnn3c(N)c2SC)CC1 [Compound 63, (1R,4R)-4-(7-amino-6-(methylthio)-3-(6-phenylpyridin-3-yl)pyrazolo[1,5-a]pyrimidin-5-yl)-1-(2-methoxyethoxy)cyclohexanecarboxylic acid] |
| 1 to 100 nM | 1000 to 2000 nM | Nc1c(Br)c([C@H]2CC[C@@](OCCN3CCOCC3)(C(=O)O)CC2)nc2c(-c3ccc(-c4ccccc4)nc3)cnn12 [Compound 65, (1R,4R)-4-(7-amino-6-bromo-3-(6-phenylpyridin-3-yl)pyrazolo[1,5-a]pyrimidin-5-yl)-1-(2-morpholinoethoxy) cyclohexanecarboxylic acid] |
| 1 to 100 nM | 1000 to 2000 nM | Nc1c(Br)c([C@H]2CC[C@](OCCN3CCOCC3)(C(=O)O)CC2)nc2c(-c3ccc(-c4ccccc4)nc3)cnn12 [Compound 66, (1S,4S)-4-(7-amino-6-bromo-3-(6-phenylpyridin-3-yl)pyrazolo[1,5-a]pyrimidin-5-yl)-1-(2-morpholinoethoxy) cyclohexanecarboxylic acid] |
